Results taken from patent US5494813A, “Nematode control with proteinase inhibitors” (Nickerson Biocem Limited, priority 1991, dated 1996).
Entries after “also recorded” stand apart in the source; their conditions may differ.

How the values were obtained:
[1] = tested on: endoproteinase activity of G. pallida; test: Endoproteinase activity of G. pallida female homogenate on RUBISCO with inhibitors/activators (SDS-PAGE densitometry); type: biochemical, Globodera pallida; settings: RUBISCO substrate; for % enzyme activity: pH 5.7, 25 C, mean ± SEM, control 100 ± 7, 30 min
Experimental: Females of G. pallida were removed from potato roots and homogenised in EDTA (1 mm)-NaOH buffered distilled water (pH 6.0). The nematode homogenate was clarified by centrifugation at 13,000 g for 2 min and passed through non-absorbent cotton wool. The filtrate was used directly as the source of crude proteinases. pH was controlled using 0.1M of citrate-phosphate, sodium-phosphate and phosphate-carbonate buffers for pH 3.0-6.0, pH 6.5-7.5 and 8.0-8.5 respectively. These buffers were mixed with equal volume of the nematode homogenate and RUBISCO (150 μg) in 0.04% SDS resulting in a final reaction volume of 75 μl . […] The tubes were kept on ice for 30 min for full precipitation to occur. The supernatant was clarified by centrifugation (13,000 g, 2 min). The liberation of TCA-soluble amino groups from digested RUBISCO was used to quantify the proteolytic activity of nematode homogenates using 2, 4,6-trinitrobenzsulphonic acid (TNBS). TNBS reagent was made by mixing one volume of 0.3% (w/v) TNBS in water with four volume of 4% (w/v) sodium tetraborate in 0.15M NaOH. 250 μl of the reagent was mixed with 75 μl of sample and the reaction was allowed to proceed for 60 min at 30° C. before terminating by adding […] of 0.5M HCl. The absorbance at 340 nm was read against both homogenate and RUBISCO controls. Results are expressed as nmol of TCA-soluble amino groups liberated per min at 25° C. using a standard curve based on L-leucine in CP buffer.
Subsequent work was based on pH 5.7 using CP buffer. Females of G. pallida were rinsed in 50 mM CP buffer plus 1 mM EDTA and homogenised in ice-cold 50 mM CP buffer, centrifuging and filtering as before. The EDTA wash step was omitted for experiments using inhibitors or activators (see below).
25 μl of RUBISCO (from a stock solution in CP buffer of 1 mg/ml containing 0.04% SDS) was added to 20 μl of the sample homogenate and either 5 μl CP buffer or 5 μl of inhibitor/activator. After incubation for 60 min, the reaction was stopped by adding 30 μl of denaturing buffer and boiling for 2.5 min.
Stock inhibitor and activator solutions (Table 3) were made up in buffer and added to the nematode extract. The inhibitor/activator was pre-incubated with the enzyme solutions for 30 min at 25° C. before addition to the protein substrate
The gel was stained using Coomassie Brilliant Blue.
In order to elucidate the effect of activators and inhibitors on the proteolytic activity of nematode proteinase(s), RUBISCO was treated with the extract at 25 C. at a substrate protein-nematode protein ratio (w/w) of 8. After a 30 min incubation, the reaction mixture was terminated and analysed by SDS-PAGE. The RUBISCO substrate band in the gel was quantified densitometrically (Joyce Loble Chromscan 3), and the amount of protein remaining gave an estimation of the rate of activity of the proteinase.

[2] = tested on: proteolytic activity of the 5HT-induced exudate from J2; test: Proteolytic activity of the 5HT-induced exudate from J2 of G. pallida (biotin/gelatin microtitre plate assay); type: biochemical, Globodera pallida; settings: for Relative Activity (% of controls at that pH), pH 5 / Relative Activity (% of controls at that pH), pH 6.8: CpTi 10 μg/ml, rice preparations 30 μg/ml, other concentrations not given; for Relative Activity (% of controls at that pH), pH 6.8: maize preparation 20 μg/ml
Experimental: Freshly hatched juveniles of G. pallida were incubated in 2.5 mM 5'hydroxytryptamine in water at 20° C. for 4 h. This caused material to exude from the mouth which can be visualized at the mouth by allowing the protein stain Ponceau S to diffuse through a small aliquot of the experimental sample containing the nematodes under a microscope slide and coverslip. Worms were removed from the medium by centrifugation at 3000 g for 2 min before the fluid was dialyzed at 4° C. against distilled water overnight. The material was freeze-dried in aliquots at -70° C. until use and reconstituted to 2.5 μg protein/ml dH2 O at 5° C. immediately before use. Assays were carried out in a reaction mixture prepared by mixing 50 μl of this solution with 20 μl of either 100 mM phosphate buffer at pH 6.8 or 100 mM titrate/phosphate buffer at pH 5 plus either 10 μl of the inhibitor under test at the concentrations given in Table 7 or dH2 O for corresponding control rates for the uninhibited exudate.
The assays were carried out by coating microtitre plates (NUNC) with 50 μl of 0.01 μg/ml biotin/gelatin in carbonate buffer (pH 9.6) overnight at 4° C. The plates were blocked with 1% gelatin and washed with PBS before adding 75 μl of freshly prepared reaction mixture for 18 h. The reaction was stopped by washing wells eight times with PBS-tween before adding 100 μl of avidin-conjugated alkaline phosphatase with 1% goat serum to each well for 1 h. The wells were washed as before with PBS-tween followed by 2 rinses in PBS before addition of 100 μl of 1 mg/ml P-nitrophenyl phosphate in substrate buffer (10% diethanolamine and 0.5 mM MgCl2) at pH 9.8. The color development was read at 405 nm using a plate reader (Biorad). All samples were compared against a reference blank which lacked nematode exudate preparation in the reaction mixture.

Compound | Effect on endoproteinase activity (in words) ([1]; pH 5.7) | % enzyme activity [1] | Effect on proteolytic activity of the exudate at pH 5 (in words) [2] | Relative Activity (% of controls at that pH), pH 5 [2] | Effect on proteolytic activity of the exudate at pH 6.8 (in words) ([2]; pH 6.8) | Relative Activity (% of controls at that pH), pH 6.8 ([2]; pH 6.8) | Inhibition of proteolytic activity ([1]; pH 5.7)
CC(=O)[O][Hg][c]1ccccc1 [PMA] | almost total inhibition | 11 ± 6% | – | – | – | – | –
O=C(O)CN(CCN(CC(=O)O)CC(=O)O)CC(=O)O [EDTA] | – | – | stimulated | > 100% | inhibited | 93% | –
CC(C)C[C@H](NC(=O)[C@H]1O[C@@H]1C(=O)O)C(=O)NCCCCN=C(N)N [E-64, L-trans-epoxysuccinyl-leucylamide-(4-guanidino)-butane] | – | 79 ± 6% | inhibited | 0% | – | 5% | 21%
OC(CS)C(O)CS (centres unmarked) [DTT] | stimulated | 128 ± 11% | – | – | – | – | –
p-aminomercuribenzoate [PAMBA] | potent inhibitor; also recorded: almost total inhibition | 3 ± 4% | – | – | – | – | –
N[C@@H](CS)C(=O)O [Cys, cysteine] | stimulated | 112 ± 5% | stimulated | > 100% | – | 100% | –
